Measurements published in patent US6214859A, “Ethylamine derivatives” (Fujimoto Brothers Co., Ltd., priority 1997, dated 2001).
Several values for one entry are separate records, joined by “and”; a condition that tells them apart may be missing. Equal entries are not always repeated.

Experiments:
serotonin release, raphe = assay: Release of biogenic amines from brain tissue: serotonin, raphe; format: in vivo, Wistar rats
[1] = tested on: dopamine release, striatum; assay: Release of biogenic amines from brain tissue: dopamine, striatum; format: in vivo, Wistar rats
[2] = tested on: rats reduced learning ability by tetrabenazine; assay: Conditioned avoidance task in the shuttle box (tetrabenazine-treated rats); format: in vivo, rat; conditions: tetrabenazine 1 mg/kg s.c., significance and direction
Method in brief: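 Male and female rats (200–220 g) were trained in a shuttle box (light/buzzer conditioned stimulus, 100 trials/day for 5 days). Tetrabenazine 1 mg/kg s.c. was given 1 h before testing, with compound at 1, 2, 2.5 or 5 mg/kg s.c. given together with tetrabenazine. CARs, EFs and IRs were counted automatically and analysed by multi-way ANOVA.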

[3] = tested on: dopamine release, tuberculum olfactorium; assay: Release of biogenic amines from brain tissue: dopamine, tuberculum olfactorium; format: in vivo, Wistar rats
human platelet MAO-B = molecular target: T1, human platelet MAO-B (Homo sapiens, UniProt P27338); assay: biochemical; conditions: 10^-5 M; read-out: Inhibition rate of MAO-B
T1 construct: The suspension was used as enzyme for MAO activity assay in blood platelets; from tissue; host or cells: human blood platelets (frozen, thawed and sonicated platelet rich plasma)
T1 sequence (P27338 1-520): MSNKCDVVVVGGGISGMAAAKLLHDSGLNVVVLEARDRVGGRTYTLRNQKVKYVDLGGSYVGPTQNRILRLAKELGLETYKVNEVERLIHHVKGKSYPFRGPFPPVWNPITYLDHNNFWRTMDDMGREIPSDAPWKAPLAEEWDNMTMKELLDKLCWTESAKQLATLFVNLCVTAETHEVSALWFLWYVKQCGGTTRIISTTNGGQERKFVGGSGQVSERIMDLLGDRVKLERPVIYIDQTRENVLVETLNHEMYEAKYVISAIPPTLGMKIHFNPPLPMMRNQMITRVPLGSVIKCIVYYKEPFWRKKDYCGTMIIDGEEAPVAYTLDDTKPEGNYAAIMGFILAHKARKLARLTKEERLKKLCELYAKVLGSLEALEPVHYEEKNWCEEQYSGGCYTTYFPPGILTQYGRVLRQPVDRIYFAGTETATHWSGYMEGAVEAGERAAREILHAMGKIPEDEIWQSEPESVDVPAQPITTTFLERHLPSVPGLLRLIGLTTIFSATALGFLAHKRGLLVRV
Protocol: Human blood added with 3.8% citric acid was centrifuged at 950 rpm for 10 min and platelet rich plasma (PRP) was obtained. The residual blood cell was centrifuged at 3,000 rpm for 10 min and platelet poor plasma (PPP) was obtained. After blood platelets were measured from a part of PRP, PRP and PPP were frozen at -20° C. They were thawed and were sonicated to be dispersed and suspended when MAO activity was measured. The suspension was used as enzyme for MAO activity assay in blood platelets. In addition, almost all of MAO in blood platelets have been known to be B type.
MAO-B activity was determined according to the method described in Biochem. Pharmacol., 14, 1684-1685 (1965). […] The mixture was incubated at 37° C. for 5 min. After 80 μl of PRP or PPP was added to it, the mixture was incubated at 37° C. for 20 min. Thereafter, 120 μl of substrate (0.33 mg/ml kynuramine dihydrobromide) was added thereto. After incubation at 37° C. for 30 min, 800 μl of 10% trichloroacetic acid were added to stop the reaction and the solution was centrifuged at 3,000 rpm for 10 min. To 1 ml of the supernatant, 2 ml of 1 N NaOH was added and fluorescence of the solution was measured at Ex 312 nm and Em 380 nm. PRP was prepared to 250,000 cell/μl as amounts of blood platelets with […] phosphate buffer solution and 4-hydroxyquinoline was used as standard for measurement.

CCCNC(CCC)Cc1c[nH]c2ccccc12.Cl (stereo not shown) [Compound No. 20, 1-(Indol-3-yl)-2-propylaminopentane Hydrochloride]
Release of serotonin, raphe (serotonin release, raphe; 0.005 mg/kg s.c.): 0.492 ± 0.02 nmol/g tissue, for 20 min
Release of serotonin, raphe (serotonin release, raphe; 0.01 mg/kg s.c., Hydrochloride): 0.961 ± 0.02 nmol/g tissue, for 20 min and 0.938 ± 0.01 nmol/g tissue, for 20 min
Release of serotonin, raphe (serotonin release, raphe; 0.05 mg/kg s.c.): 1.203 ± 0.08 nmol/g tissue, for 20 min
Release of serotonin, raphe (serotonin release, raphe; 0.25 mg/kg s.c.): 0.481 ± 0.05 nmol/g tissue, for 20 min
Release of serotonin, raphe (serotonin release, raphe; 1.00 mg/kg s.c.): 0.355 ± 0.05 nmol/g tissue, for 20 min
Release of serotonin, raphe (serotonin release, raphe; 5.00 mg/kg s.c.): 0.565 ± 0.01 nmol/g tissue, for 20 min
Release of dopamine, striatum ([1]; 0.005 mg/kg s.c.): 5.8 ± 0.11 nmol/g tissue, for 20 min
Release of dopamine, striatum ([1]; 0.01 mg/kg s.c., Hydrochloride): 6.5 ± 0.12 nmol/g tissue, for 20 min and 5.8 ± 0.18 nmol/g tissue, for 20 min
Release of dopamine, striatum ([1]; 0.05 mg/kg s.c.): 5.6 ± 0.13 nmol/g tissue, for 20 min
Release of dopamine, striatum ([1]; 0.25 mg/kg s.c.): 3.2 ± 0.05 nmol/g tissue, for 20 min
Release of dopamine, striatum ([1]; 1.00 mg/kg s.c.): 4.2 ± 0.15 nmol/g tissue, for 20 min
Release of dopamine, striatum ([1]; 5.00 mg/kg s.c.): 4.7 ± 0.13 nmol/g tissue, for 20 min
Condition Avoidance Reflex (CARs) ([2]; 1 mg/kg s.c., Hydrochloride): * .Arrow-up bold.
Condition Avoidance Reflex (CARs) ([2]; 2.5 mg/kg s.c.): **** .Arrow-up bold.
Escape Failures (EFs) ([2]; 2.5 mg/kg s.c.): **** .dwnarw.
Condition Avoidance Reflex (CARs) ([2]; 5 mg/kg s.c.): **** .Arrow-up bold.
Escape Failures (EFs) ([2]; 5 mg/kg s.c.): * .dwnarw.
Intersignal Reactions (IRs) ([2]; 5 mg/kg s.c.): * .dwnarw.
Release of dopamine, tuberculum olfactorium ([3]; 0.005 mg/kg s.c.): 7.0 ± 0.25 nmol/g tissue, for 20 min
Release of dopamine, tuberculum olfactorium ([3]; 0.01 mg/kg s.c., Hydrochloride): 8.0 ± 0.17 nmol/g tissue, for 20 min and 5.5 ± 0.20 nmol/g tissue, for 20 min
Release of dopamine, tuberculum olfactorium ([3]; 0.05 mg/kg s.c.): 5.8 ± 0.19 nmol/g tissue, for 20 min
Release of dopamine, tuberculum olfactorium ([3]; 0.25 mg/kg s.c.): 3.5 ± 0.21 nmol/g tissue, for 20 min
Release of dopamine, tuberculum olfactorium ([3]; 1.00 mg/kg s.c.): 4.3 ± 0.07 nmol/g tissue, for 20 min
Release of dopamine, tuberculum olfactorium ([3]; 5.00 mg/kg s.c.): 4.8 ± 0.09 nmol/g tissue, for 20 min
inhibition at 10 µM (human platelet MAO-B): 6.4%

CCCNC(CCC)Cc1ccc2c(c1)OCO2.Cl (stereo not shown) [Compound No. 27, 1-(1,3-Benzodioxol-5-yl)-2-propylaminopentane Hydrochloride]
Release of serotonin, raphe (serotonin release, raphe; 0.10 mg/kg s.c.): 0.399 ± 0.00 nmol/g tissue, for 20 min
Release of serotonin, raphe (serotonin release, raphe; 0.25 mg/kg s.c.): 0.414 ± 0.01 nmol/g tissue, for 20 min
Release of dopamine, striatum ([1]; 0.10 mg/kg s.c.): 3.4 ± 0.10 nmol/g tissue, for 20 min
Release of dopamine, striatum ([1]; 0.25 mg/kg s.c.): 4.1 ± 0.24 nmol/g tissue, for 20 min
Condition Avoidance Reflex (CARs) ([2]; 1 mg/kg s.c.): *** .Arrow-up bold.
Escape Failures (EFs) ([2]; 1 mg/kg s.c.): *** .dwnarw.
Release of dopamine, tuberculum olfactorium ([3]; 0.10 mg/kg s.c.): 4.7 ± 0.13 nmol/g tissue, for 20 min
Release of dopamine, tuberculum olfactorium ([3]; 0.25 mg/kg s.c.): 5.2 ± 0.23 nmol/g tissue, for 20 min
inhibition at 10 µM (human platelet MAO-B): 34%
